Reference: PMC6273209, “Evaluation of the Enantiomer Specific Biokinetics and Radiation Doses of [^18F]Fluspidine—A New Tracer in Clinical Translation for Imaging of σ1 Receptors” (Molecules, 2016)
Read-outs that look alike come from different tables or passages of the source.

Legend:
[1] = cited from earlier work
[2] = cited from earlier work; remark: listed apart in the source
[3] = imaging, cited from earlier work
σ1 receptors = biological target: σ1 receptors; parameters: method as in PMID 24130175; details: read-out: Ki (affinity towards σ1 receptors); cited from earlier work
[4] = Acute toxicity study, single intravenous injection; format: in vivo; details: Wistar rats
Text: Supplementary Materials: Evaluation of the Enantiomer Specific Biokinetics and Radiation Doses of [18F]Fluspidine—A New Tracer in Clinical
Translation for Imaging of σ1 Receptors […]
Supplemental Methods and Results
Animal Toxicity Study of (S)-(−)-Fluspidine
The purpose of this study was to assess the acute toxicity of (S)-(−)-fluspidine when administered by a single intravenous injection to rats followed by an observation period of 2 or 15 day (in accordance with EU cGLP). Briefly, the study was performed with 4 test groups, including 1 control (saline and dimethylsulfoxide) and 3 dose groups (6.2, 62 and 620 µg/kg, (S)- (−)ﬂuspidine), with Wistar rats (60 m, 60 f, 12 weeks) divided into two experiments: day 2 (40 males and 40 females) and day 15 (20 males and 20 females). The animals were weighted and allocated to the test groups based on their actual body weights. The animals were sacrificed at two time periods (day 2 and day 15 after test item administration) and then examined macroscopically and histopathologically. In addition the following parameters were evaluated: mortality, clinical observation (spasms, tremor and hyperactivity), body weights, food consumption, haematology (white blood cells, red blood cells, hemoglobin, hematocrit, mean corpuscular volume, mean corpuscular hemoglobin, platelets, lympohcytes, neutrophils, eosinophils, basophils, monocytes), clinical chemistry (alkaline phosphatase, aspartate aminotransferase, alanine aminotransferase, glucose, cholesterol, triacylglycerols, creatinine, urea, bilirubin, albumin, calcium, phosphorus, sodium, potassium chloride), pathology and histopathology. […]
in either gender were detected. The food consumption corresponded with body weight development. All haematology parameter´s values on day 2 and day 15 were within physiological range for this species. Individual divergences of some values of the haematology parameters were slight and not connected with treatment.
There were no findings in clinical chemistry parameters which could be definitively considered as adverse. The average values of all test groups were within the historical control ranges. Occasional changes had no dose relationship, they were considered to be a result of intraindividual and interindividual variability for this species. […]
histopathological parameters on day 2 and day 15. The no observed effect level (NOEL) of (S)- (−)-fluspidine after single intravenous administration in this study for both day 2 and day 15 was determined to be 620 µg/kg.

[5] = parameters: method as in PMID 12573321, PMID 12589478; details: cited from earlier work

## [18F]c1ccc(C2CC3CCCC2N3)cn1 (single isomer, unassigned; (+)) [(+)-[^18F]flubatine]
[1]; mouse, imaging
  ED Preclinical: 12.1 μSv/MBq
[2]
  ED Clinical: 23.0 μSv/MBq
[3]; piglets
  ED Preclinical: 14.3 μSv/MBq

## [18F]c1ncccc1OC[C@@H]1CCN1 [2-[^18F]F-A85380]
[2]
  ED Clinical: 19.4 μSv/MBq

## FCC[C@H]1OC2(CCN(Cc3ccccc3)CC2)c2ccccc21 [(R)-(+)-[^18F]fluspidine]
σ1 receptors
  Ki: 0.57 nM

## FCC[C@@H]1OC2(CCN(Cc3ccccc3)CC2)c2ccccc21 [(S)-(−)-fluspidine]
[4]; single i.v. 6.2, 62 and 620 µg/kg, either gender
  body weights, control vs treated groups: No statistically significant differences in body weights
[4]; single i.v.
  adverse findings in clinical chemistry parameters: no findings
[4]; single i.v., day 2 and day 15
  effect on haematology parameters: No test item effect
[4]; single intravenous administration, day 2 and day 15
  toxicological changes in pathological and histopathological parameters: did not cause toxicological changes
[4]; single intravenous administration, day 2 and day 15, highest tested dose
  no observed effect level (NOEL): 0.62 mg/kg

## [18F]c1ccc([C@@H]2C[C@H]3CCC[C@@H]2N3)cn1 [(−)-[^18F]flubatine]
[1]; mouse
  ED Preclinical: 12.5 μSv/MBq
[2]
  ED Clinical: 23.4 μSv/MBq
[3]; piglet
  ED Preclinical: 14.7 μSv/MBq

## OC[C@H]1OC(O)[C@H]([18F])[C@@H](O)[C@@H]1O (stereo partly shown) [[^18F]FDG]
[2]
  ED Clinical: 19.0 μSv/MBq

## COc1ccc(OCC[18F])c(CN(C(C)=O)c2cc(F)ccc2Oc2ccccc2)c1 [[^18F]FEDAA1106]
[1]; female mouse
  ED Preclinical: 26.0 μSv/MBq
[1]; male mouse
  ED Preclinical: 21.0 μSv/MBq
[2]
  ED Clinical: 36 μSv/MBq

## N[C@@H](Cc1ccc(OCC[18F])cc1)C(=O)O [[^18F]FET]
[2]
  ED Clinical: 16.5 μSv/MBq
[5]
  ED Preclinical: 9.0 μSv/MBq
